Measured values reported in patent US6770787B2, “Heavier halogen atom substituted squaraine based dyes, process for the preparation thereof and use thereof as sensitizers for photodynamic, therapeutical and industrial applications” (priority 2001, dated 2004).
Read-outs that look alike come from different tables or passages of the source.

Columns and labels:
[1] = photosensitized singlet oxygen generation in presence and absence of polyvinylpyrrolidone; type: physicochemical
Source text: Because triplet excited states were the major transient intermediates obtained upon 532 nm laser flash photolysis studies of bis(3,5-dibromo-2,4,6-trihydroxyphenyl)squaraine and bis(3,5-diiodo-2,4,6-trihydroxyphenyl)squaraine, the efficiency of photosensitized singlet oxygen generation by these systems have been examined, since singlet oxygen is the main cytotoxic agent of the type II reactions in photodynamic therapy. Since singly deprotonated forms of bis(3,5-dibromo-2,4,6-trihydroxyphenyl)squaraine and bis(3,5-diiodo-2,4,6-trihydroxyphenyl)squaraine, have significant triplet yields and have long lifetimes (Ramaiah, D; Joy, A.; Chandrasekhar, N; Eldho, N. V.; Das, S.; George, M. V. Photochem. Photobiol. 1997, 65, 783), moreover these are the forms that are expected to be the predominant species under the biological pH conditions (around 7.4). The first level characterization of these dyes for using them as sensitizers in photodynamic therapy, we have investigated their efficiency of singlet oxygen generation in presence of drug carriers, membrane mimics and microheterogeneous media. Results obtained in presence of polyvinylpyrrolidone (PVP) using bis(3,5-dibromo-2,4,6-trihydroxyphenyl)squaraine and bis(3,5-diiodo-2,4,6-trihydroxyphenyl)squaraine are shown in TABLE 1.

[2] = test system: PM2 DNA; test: plasmid DNA cleavage (DNA relaxation assay, single strand breaks) by dye plus light; type: biochemical; settings: for Relative number of single strand breaks (%): SSB in phosphate buffer pH 7.4 without additive = 100%; for fold enhancement in the cleavage of DNA: in D2O
Source text: The mechanism of in vitro photodynamic activity of squaraines has been evaluated in detail by using plasmid DNA (PM2 DNA) and investigating the cleavage of DNA under a variety of conditions. Cleavage of DNA cleavage was followed by monitoring the conversion of supercoiled (Form I) to open circular (Form II) and linear forms (Form III). Induction of one single strand break by a compound/agent converts Form I to Form II and the quantification of these forms by DNA relaxation assay as described previously (Epe, B.; Hegler, J. J. Methods Enzymol. 1994, 234, 122) indicates its efficiency of DNA cleavage. Plasmid DNA cleavage is a very sensitive technique, which can be used to test the various properties of sensitizers and the DNA damage profiles obtained by using scavengers and activators can serve as a kind of fingerprint of the species directly responsible for the damage and also provide the information on the mechanism of in vitro photodynamic activity.
PM2 DNA (10,000 bp, 10 μg/mL) exposed to squaraine dyes plus light from a 1000 W halogen lamp (Philips PF811) at a distance of 33 cm in phosphate buffer (5 mM KH2PO4, 50 mM NaCl, pH 7.4) on ice. The modified DNA was precipitated by ethanol/sodium acetate and quantified the single strand breaks (SSB) by DNA relaxation assay. Superoxide dismutase (SOD) (20 μg/ml), catalase (315 U/ml) were added or the H2O in the buffer was replaced by D2O (the final isotope purity was greater than 96%) to have a better understanding of the active species involved. The results of these studies with representative squaraine based dyes bis(3,5-dibromo-2,4,6-trihydroxyphenyl)squaraine and bis(3,5-diiodo-2,4,6-trihydroxyphenyl)squaraine are shown in TABLE 2.

[3] = stability in the dark in ethanol and phosphate buffer (absorbance change); type: physicochemical; settings: for Absorbance: 25° C.
Experimental: (§1) The information about the stability of the sensitizer in presence and absence of light is important for its practical use. Therefore, the stability of these dyes in presence and absence of light in ethanol and phosphate buffer at physiological pH conditions (pH 7.4) at 25° C. was studied by following the absorbance change using spectrophotometry. The results of change in absorbance vs time in the dark with representative squaraine based dyes bis(3,5-dibromo-2,4,6-trihydroxyphenyl)squaraine and bis(3,5-diiodo-2,4,6-trihydroxyphenyl)squaraine are shown in TABLE 3.

[4] = stability under irradiation conditions (photobleaching) in buffer; type: physicochemical; settings: for Absorbance: 1000 W halogen lamp; for photobleaching: within 5 min of irradiation, buffer pH 7.4
Experimental: as §1
Compound bis(3,5-diiodo-2,4,6-trihydroxyphenyl)squaraine undergoes very fast photobleaching (nearly 50% within 5 min of irradiation), when compared to bis(3,5-dibromo-2,4,6-trihydroxyphenyl)squaraine (25%). The photobleaching was increased with the time of irradiation in both the cases. While photobleaching might be thought to be disadvantageous property in a tumor photosensitizer, but it has potential benefits since dosage can be adjusted to keep the photosensitizer in tumor at effective levels. Moreover because of their fast photobleaching, a patient after the photodynamic treatment is not required to stay in the dark for long periods of time and if required therapy can be repeated frequently with short intervals of time.

[5] = test system: AS52 cells; test: cell killing efficiency (cytotoxicity) with and without light; type: cell-based; settings: for cytotoxicity (cell survival): in the dark; for cell killing efficiency (% of cell survival): under illumination conditions, increasing concentration
Experimental: To measure the cell killing efficiency (cytotoxicity) of squaraine based sensitizers with and without light, AS52 cells were exposed to various concentrations of sensitizer. The light exposure was carried out from a 1000 W halogen lamp at a distance of 33 cm in Ca^2+ and Mg^2+ free PBS (140 mM NaCl, 3 mM KCl, 8 mM Na2HPO4, pH 7.4) on ice (10^6 cells/ml). […] The cells were pelleted by centrifugation and resuspended in PBSG three times. The cells were resuspended at 3×10^4 cells/ml in fresh medium at 37° C. and the number of cells were counted repeatedly for 60 h. From the exponential part of the growth curves (between 24 and 60 h), the number of poliferating cells at the time of resuspension was calculated by extrapolation. Cell survival was defined as the ratio between proliferating and resuspended cells.

[6] = test system: AS52 cells; test: mutagenicity, gpt locus, 6-thioguanine resistant cells; type: cell-based
Experimental: The mutagenic properties of squaraine based sensitizers was measured in AS52 cells, which carry the bacterial guanine phosphoribosyltraiisferase (gpt) gene as a selection marker that confers sensitivity to 6-thioguanine. AS52 cells were cultured in cleansing medium containing 11 μg/ml xanthine 219 μg/ml xanthine, 22 μg/ml adenine, 1.2 μg/ml aminopterin and 8.8 μg/ml mycophenolic acid) for one week to eliminate spontaneous gpt mutants. […] During this time, exponential growth of cells was maintained. 2×10^5 cells were diluted in 10 ml culture medium and plated in petri dishes (94 mm) After 2 h, 6-thioguanine was added to each plate (final concentration 2.5 μg/ml) for selection. 200 cells were added in 5 ml culture medium and plated in petri dishes (60 mm) to determine the cloning efficiencies. The plates were incubated for 7 to 9 days. The medium was replaced by NaCl solution (0.9% v/v), the cell colonies were fixed with methanol (−20° C.) for 15 min and stained with Giemsa (10% in H2O) for 15 min. The subsequent quantification of 6-thioguanine resistant cells and the determination of cytotoxicity (ratio of the plating efficiences of treated and untreated cells) directly after exposure to squaraines plus light carried out according to the protocol (Tindall, K. R.; Stankowski Jr. L. F.; Machanoff, R.; Hsie, A. W. Mutat. Res. 1986, 160, 121-131).

[7] = test system: AS52 cells; test: induction of micronuclei; type: cell-based
Experimental: Further to understand the genetic effects, the micronuclei induced by bis(3,5-dibromo-2,4,6-trihydroxyphenyl)squaraine and bis(3,5-diiodo-2,4,6-trihydroxyphenyl)squaraine were also quantified in AS52 cells. AS52 cells were exposed to squaraines as described above and resuspended in full medium. After incubation for 24 h at 39° C., approximately 1×10^5 cells were fixed on a microscope slide by cytospin-centrifugation and treatment with methanol for 1 h at −21° C. After staining with bisbenzimide for 3 min in PBS (without Ca2+ and Mg2+), 2000 cells were examined for the presence of micronuclei with a fluorescent microscope.

[8] = test system: PM2 DNA; test: plasmid DNA cleavage (DNA relaxation assay, single strand breaks) by dye plus light; type: biochemical; settings: SSB in phosphate buffer pH 7.4 without additive = 100%
[9] = solubility at physiological pH; settings: physiological pH conditions
[10] = buffer pH 7.4, irradiation time 0 min
[11] = buffer pH 7.4, irradiation time 5 min
[12] = buffer pH 7.4, irradiation time 10 min
[13] = buffer pH 7.4, irradiation time 15 min
[14] = buffer pH 7.4, irradiation time 20 min
[15] = buffer pH 7.4, irradiation time 30 min

| Structure (SMILES) | singlet oxygen quantum yields ([1]; PVP 0 mM) | singlet oxygen quantum yields ([1]; PVP 14 mM) | Relative number of single strand breaks (%) ([2]; Catalase (315 U/mL)) | Relative number of single strand breaks (%) ([2]; D2O Buffer) | Relative number of single strand breaks (%) ([2]; SOD (20 g/mL)) | fold enhancement in the cleavage of DNA [2] | Absorbance ([3]; buffer pH 7.4, dark, 0 min) | Absorbance ([3]; buffer pH 7.4, dark, 30 min) | Absorbance ([3]; buffer pH 7.4, dark, 60 min) | Absorbance ([3]; buffer pH 7.4, dark, 90 min) | Absorbance [4, 10] | Absorbance [4, 11] | Absorbance [4, 12] | Absorbance [4, 13] | Absorbance [4, 14] | Absorbance [4, 15] | photobleaching [4] [%] | cytotoxicity (cell survival) [5] | cell killing efficiency (% of cell survival) [5] | Relative number of single strand breaks (%) ([8]; PH 7.8) | other results |
| --- | --- | --- | --- | --- | --- | --- | --- | --- | --- | --- | --- | --- | --- | --- | --- | --- | --- | --- | --- | --- | --- |
| O=C1C(Br)=C(O)C(=C2C(=O)C(c3c(O)c(Br)c(O)c(Br)c3O)=C2O)C(O)=C1Br [bis(3,5-dibromo-2,4,6-trihydroxyphenyl)squaraine] | 0.13 ± 0.005 | 0.29 ± 0.001 | 115 ± 5 | 526 ± 28 | 109 ± 5 | Nearly five | 1.84 | 1.72 | 1.65 | 1.61 | 1.8 | 1.35 | 1.30 | 1.25 | 1.17 | 1.10 | 25 | no significant effect | high cell killing efficiency | 105 ± 4 | stability in the dark [3]: very stable; Absorbance ([3]; ethanol, dark, 0 min): 1.90; Absorbance ([3]; ethanol, dark, 30 min): 1.88; Absorbance ([3]; ethanol, dark, 60 min): 1.88; Absorbance ([3]; ethanol, dark, 90 min): 1.88; induction of mutations (6-thioguanine resistant cells) [6]: do not induce immediate mutations; induction of micronuclei [7]: do not induce significant amounts of micronuclei; Relative number of single strand breaks (%) ([8]; pH 7.0): 127 ± 12%; solubility [9]: good solubility |
| O=C1C(I)=C(O)C(=C2C(=O)C(c3c(O)c(I)c(O)c(I)c3O)=C2O)C(O)=C1I [bis(3,5-diiodo-2,4,6-trihydroxyphenyl)squaraine] | 0.47 ± 0.017 | 0.62 ± 0.007 | 92 ± 6 | 614 ± 97 | 100 ± 2 | six fold | 1.35 | 1.47 | 1.38 | 1.36 | 1.72 | 0.87 | 0.74 | 0.65 | 0.58 | 0.47 | ~50 | no significant effect | high cell killing efficiency | 109 ± 22 | increase in efficiency of singlet oxygen generation ([1]; in microheterogeneous media compared with methanol): ~15%; stability in the dark ([3]; buffer solutions at pH 7.4, 90 min): slight bleaching; stability in the dark ([3]; ethanol): very stable; induction of mutations (6-thioguanine resistant cells) ([6]; in presence and absence of light): do not induce immediate mutations; cytotoxicity (ratio of plating efficiencies) ([6]; in presence of light): severe cytotoxicity; induction of micronuclei ([7]; in presence and absence of light, 24 h incubation): do not induce significant amounts of micronuclei; Relative number of single strand breaks (%) ([8]; pH 7.0): 134 ± 9%; solubility [9]: good solubility |
